{"source": "patent US20030156970A1", "about": "“Sulphur-free lignin and derivatives thereof for reducing the formation of slime and deposits in industrial plants” (priority 2000, published 2003)", "system": "slime and deposits in paper machine white water", "assay": "Slime and deposit formation in white water tanks, same test record as example 10 (example 12, lignin plus small quantity of biocide)", "design": "species or system bacteria", "from_the_text": "The white water originated from the white water I circuit of a paper machine which produces wood-free paper with carbonate filler, used painted rejects and starch for the production of the stock and runs at a slightly alkaline pH. The white water was sampled after a re-start, before any slime combating systems were used. […] Seven tanks were filled with the white water up to the 5-litre mark, the magnetic agitators were switched on, as well as the thermostatically controlled heating systems which were set to 36° C. Weighed slime measuring boards were fully immersed in the liquid. The microbial activity in the test tanks was checked by plating out on bacterial count-Agar from the company of Merck. The additions to the slime check to be compared were diluted in a suitable way and a certain quantity was added to each test tank. After 72 hours the bacterial counts were determined again and the measuring boards covered in slime were carefully weighed. After the measurements after 72 hours the slime measur8ing boards were dried at 105° C. and again weighed in order to determine the dry weight of the stored material. The dried material was then removed from the boards and incinerated in a furnace in porcelain crucibles at 550° C. The ash was weighed back in order to measure the percentage of mineral substances in the original deposits. The whole experiment was repeated with various concentrations of the individual slime combating products.\nThe same test record as in example 10 was followed, however using the following products", "key": {"[1]": {"details": "70 ppm active (combination 50 + 20), 72 hrs"}}}
{"smiles": "O=[N+]([O-])C(Br)(CO)CO", "note": "[bromiumnitropropane diol, 2-bromium-2-nitropropane-1,3-diol]", "values": [{"measurement": "Ash content in deposits in % of the solids content of the control", "setting": "[1]", "value": 17, "unit": "%"}, {"measurement": "Dry weight of the deposit", "setting": "[1]", "value": 1.026, "unit": "g"}, {"measurement": "Moist weight of the deposit", "setting": "[1]", "value": 1.020, "unit": "g"}, {"measurement": "Solids content in deposit", "setting": "[1]", "value": 12, "unit": "%"}, {"measurement": "Solids content in deposits in % of the control", "setting": "70 ppm active (combination 50 + 20), 72 hrs, control = 100", "value": 23, "unit": "%"}, {"measurement": "Bacterial count after 72 hrs", "setting": "addition (active) 70 ppm per volume (combination 50 + 20 ppm), white water 4.7 g/l solids, start count 4.2 × 10^5", "value": "8.1 × 10^4 CFU/ml"}]}
